From patent US20110098325A1, “PYRIDINE BENZAMIDES AND PYRAZINE BENZAMIDES USED AS PKD INHIBITORS” (CANCER RESEARCH TECHNOLOGY LIMITED, priority 2006, published 2011) come the findings set out here.

Molecules are shown by their SMILES.

The target in the assay is T1, human full length PKD2 (Homo sapiens, UniProt Q9BZL6).
T1 construct: human full length PKD2 at ˜100 μg/mL was purchased from Upstate Ltd; purchased Upstate Ltd 14-506
T1 sequence (Q9BZL6 1-878): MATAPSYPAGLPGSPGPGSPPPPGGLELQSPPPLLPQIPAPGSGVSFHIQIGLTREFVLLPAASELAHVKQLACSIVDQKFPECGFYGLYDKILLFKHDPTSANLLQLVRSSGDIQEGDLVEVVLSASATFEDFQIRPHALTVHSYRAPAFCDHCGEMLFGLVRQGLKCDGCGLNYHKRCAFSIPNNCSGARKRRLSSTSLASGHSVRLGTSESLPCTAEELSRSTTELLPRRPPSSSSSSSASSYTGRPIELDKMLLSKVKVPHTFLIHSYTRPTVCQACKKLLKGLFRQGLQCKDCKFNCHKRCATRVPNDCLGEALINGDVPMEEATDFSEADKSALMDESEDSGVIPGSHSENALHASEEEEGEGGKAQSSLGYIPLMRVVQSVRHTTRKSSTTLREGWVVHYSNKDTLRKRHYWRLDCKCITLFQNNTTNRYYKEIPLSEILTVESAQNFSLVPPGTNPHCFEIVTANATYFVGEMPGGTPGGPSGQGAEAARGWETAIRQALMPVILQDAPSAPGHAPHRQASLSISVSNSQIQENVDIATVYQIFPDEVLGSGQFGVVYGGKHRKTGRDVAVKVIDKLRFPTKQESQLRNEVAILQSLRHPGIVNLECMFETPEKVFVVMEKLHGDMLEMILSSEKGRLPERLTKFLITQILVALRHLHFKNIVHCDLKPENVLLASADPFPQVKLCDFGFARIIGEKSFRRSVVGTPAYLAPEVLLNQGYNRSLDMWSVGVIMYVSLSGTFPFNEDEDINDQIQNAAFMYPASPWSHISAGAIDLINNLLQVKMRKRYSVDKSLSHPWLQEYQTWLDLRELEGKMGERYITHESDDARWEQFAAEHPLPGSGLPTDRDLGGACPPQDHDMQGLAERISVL
Briefly: PKD2 (Human Full Length) Enzyme Activity Assay (IMAP fluorescence polarisation). In kind it is biochemical. The settings on record: stands directly after the PKD2 data (b743-b745); read-out: IC50, printed as PKD1 (Human Full Length) Enzyme Activity Assay. On the procedure:
Kinase Assay Reaction Buffer: This consisted of 0.22 μM filtered 25 mM HEPES and 10 mM MgCl2 pH 7.5.
Kinase: human full length PKD2 at ˜100 μg/mL was purchased from Upstate Ltd (Product code 14-506), and obtained from aliquots stored at −70° C. It was prepared with a final concentration of 0.1 μg/mL by diluting 1:300 in Reaction Buffer (30 μL per 9 mL-5 mL per plate with an additional 4 mL dead volume) and vortexing prior to use. It is necessary to check this concentration regularly in case of enzyme degradation.
Substrate: Fluorescein labelled glycogen synthase-derived peptide (FI)-KKLNRTLSVA (also known as MAPKAP K2 substrate) was obtained from Molecular Devices (Product code R7127). […]
5 μL Kinase/Substrate in Reaction Buffer was added to ‘test’ and all ‘control’ wells of a Corning black low binding 384 well (90 μL volume) microplate to give 0.1 μg/mL and 2 μM reaction concentration respectively. […] The fluorescence polarisation of the peptide substrate was measured using an analyst (Molecular devices) microplate reader with a single read at Ex485 Em535 (Analyst settings: Z Height 5 mm, G Factor 0.95, Reads/well 1, Integration 100000 μs, Gain Sensitivity 2).
Percentage inhibition was calculated based on activity of the test sample minus the average values in the blank wells relative to the average values measured in control wells minus the average values in the blank wells. […]

As to `COc1cc(-c2cc(-c3cccc(C(=O)NCCN(C)C)c3)cnc2N)ccc1O` [Y-059, 3-[6-Amino-5-(4-hydroxy-3-methoxy-phenyl)-pyridin-3-yl]-N-(2-dimethylamino-ethyl)-benzamide], the IC50 – broadly, the point on the concentration scale where inhibition reaches its midpoint – was 32 nM. For `COc1cc(-c2cncc(-c3cccc(C(=O)NCCN(C)C)c3)n2)ccc1O` [X-007, N-(2-Dimethylamino-ethyl)-3-[6-(4-hydroxy-3-methoxy-phenyl)-pyrazin-2-yl]-benzamide], the IC50 came to 420 nM.
